Data taken from patent publication US20100048398A1, “HERBICIDAL COMBINATION” (SYNGENTA CROP PROTECTION, INC., priority 2006, published 2010).

How the values were obtained:
Test in all cases: Glasshouse peri-emergence herbicide test, damage to plant
Format in all cases: in vivo
Conditions in all cases: sprayed six days after sowing (peri-emergence), evaluated after 14 days; rate gai/ha: Prosulfocarb 2400, Flumioxazin 20, combination 2400 + 20
TRZAW = Tritcum aestivum = test system: TRZAW = Tritcum aestivum
Description: (§1) Seeds of a variety of test species were sown in standard soil. After cultivation for six days (peri-emergence) under controlled conditions in a glasshouse (at 24/16° C., day/night; 14 hours light; 65% humidity), the plants were sprayed with an aqueous spray solution comprising the technical active ingredient(s). The test plants were then grown in a glasshouse under controlled conditions in a glasshouse (at 24/16° C., day/night; 14 hours light; 65% humidity) and watered twice daily. After 14 days, the test was evaluated (100=total damage to plant; 0=no damage to plant).

[1] = test system: LOLMU = Lolium multiflorum
Description: as §1

AVEFA = Avena fatua = test system: AVEFA = Avena fatua
Description: as §1

[2] = test system: ALOMY = Alopecurus myosuroides
Description: as §1

GALAP = Galium aparine = test system: GALAP = Galium aparine
Description: as §1

[3] = test system: VERPE = Veronica persicae
Description: as §1

HORVW = Hordeum vulgare = test system: HORVW = Hordeum vulgare
Description: as §1

[4] = test system: APESV = Apera spica-venti
Description: as §1

POAAN = Poa annua = test system: POAAN = Poa annua
Description: as §1

Structure (SMILES)	damage to plant (100=total damage; 0=no damage), TRZAW (TRZAW = Tritcum aestivum)	damage to plant (100=total damage; 0=no damage), LOLMU [1]	damage to plant (100=total damage; 0=no damage), AVEFA (AVEFA = Avena fatua)	damage to plant (100=total damage; 0=no damage), ALOMY [2]	damage to plant (100=total damage; 0=no damage), GALAP (GALAP = Galium aparine)	damage to plant (100=total damage; 0=no damage), VERPE [3]	damage to plant (100=total damage; 0=no damage), HORVW (HORVW = Hordeum vulgare)	damage to plant (100=total damage; 0=no damage), APESV [4]	damage to plant (100=total damage; 0=no damage), POAAN (POAAN = Poa annua)
C#CCN1C(=O)COc2cc(F)c(N3C(=O)C4=C(CCCC4)C3=O)cc21 [Flumioxazin, flumioxazin]	8	0	8	33	73	99	0	60	5
CCCN(CCC)C(=O)SCc1ccccc1 [Prosulfocarb, prosulfocarb]	–	30	55	78	78	88	–	95	0
